The text below walks through data of patent US8329390B2, “Detection of transmembrane potentials using N,N,N′-trialkyl thiobarbituric acid-derived polymethine oxonols” (priority 2004, dated 2012).

The data set in a line: Absorption and fluorescence spectral properties. Format: physicochemical. The source says: For all the syntheses, all starting materials and reagents were of the highest purity available (Aldrich Chemical Company, Milwaukee, Wis.) and used without further purification, except where noted. Solvents were HPLC grade (Fisher Scientific, Pittsburgh, Pa.) and were dried over activated molecular sieves. NMR spectra were acquired on a Varian Gemini 200 MHz spectrometer. Absorption and fluorescence spectra were taken respectively on a Cary 50 BIO and Varain Eclipse (Varian, Inc., Palo Alto, Calif.).

Some results are limits rather than exact numbers.

Regarding `CN1C(=O)C(=C/C=C/c2c(O)[nH]c(=S)n(C)c2=O)C(=O)N(C)C1=S` [Compound 4], the absorption maximum amounted to 532 nm and the emission maximum is 555 nm. For the setting “at 532 nm”, the ext. coefficient was 175,000 M^−1 cm^−1. The same compound yielded a quantum yield (in octanol) greater than 0.2.
